# Tested on: 857933-349-R-J2-PDC complex spheroids, viability
# Test: Anticancer human tumor 857933-349-R-J2-PDC patient-derived colon adenocarcinoma cell line growth inhibition [GQUAD]
# Settings: for IC50: curve of first compound; for viability, T/C: stronger effect = lower value
# How it was run: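 Tumor cells were grown as complex spheroids with HUVEC endothelial cells and mesenchymal stem cells as stroma. G-quadruplex stabilizers were combined with targeted agents over half-log dilutions from near the clinical Cmax, or from 10 microM.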
# [1] = second compound 0.0316 µM, first compound 0.0316 µM
# [2] = second compound 0.0316 µM, first compound 0.1 µM
# [3] = second compound 0.0316 µM, first compound 0.316 µM
# [4] = second compound 0.0316 µM, first compound 1 µM
# [5] = second compound 0.0316 µM, first compound 3.16 µM
# [6] = second compound 0.0316 µM, first compound 10 µM
# [7] = second compound 0.1 µM, first compound 0.0316 µM
# [8] = second compound 0.1 µM, first compound 0.1 µM
# [9] = second compound 0.1 µM, first compound 0.316 µM
# [10] = second compound 0.1 µM, first compound 1 µM
# [11] = second compound 0.1 µM, first compound 3.16 µM
# [12] = second compound 0.1 µM, first compound 10 µM
# [13] = second compound 0.316 µM, first compound 0.0316 µM
# [14] = second compound 0.316 µM, first compound 0.1 µM
# [15] = second compound 0.316 µM, first compound 0.316 µM
# [16] = second compound 0.316 µM, first compound 1 µM
# [17] = second compound 0.316 µM, first compound 3.16 µM
# [18] = second compound 0.316 µM, first compound 10 µM
# [19] = second compound 1 µM, first compound 0.0316 µM
# [20] = second compound 1 µM, first compound 0.1 µM
# [21] = second compound 1 µM, first compound 0.316 µM
# [22] = second compound 1 µM, first compound 1 µM
# [23] = second compound 1 µM, first compound 3.16 µM
# [24] = second compound 1 µM, first compound 10 µM
# [25] = second compound 3.16 µM, first compound 0.0316 µM
# [26] = second compound 3.16 µM, first compound 0.1 µM
# [27] = second compound 3.16 µM, first compound 0.316 µM
# [28] = second compound 3.16 µM, first compound 1 µM
# [29] = second compound 3.16 µM, first compound 3.16 µM
# [30] = second compound 3.16 µM, first compound 10 µM
# [31] = second compound 10 µM, first compound 0.0316 µM
# [32] = second compound 10 µM, first compound 0.1 µM
# [33] = second compound 10 µM, first compound 0.316 µM
# [34] = second compound 10 µM, first compound 1 µM
# [35] = second compound 10 µM, first compound 3.16 µM
# [36] = second compound 10 µM, first compound 10 µM
# 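Also: spheroids exposed to compounds for one week before readout.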
# 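For viability, T/C in this document: percent viability relative to vehicle DMSO wells taken as 100%.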
smiles,measurement,setting,value
COc1ccc([C@@H](O)c2cc(-c3ncnc4cc(N5CCOCC5)ccc34)c(F)cc2Cl)nn1 + CN(C)c1ccc(Nc2c3ccc(NC(=O)CCN4CCCC4)cc3nc3cc(NC(=O)CCN4CCCC4)ccc23)cc1,IC50,second compound 0.0316 µM,> 10000 nM
same,IC50,second compound 0.1 µM,> 10000 nM
same,IC50,second compound 0.316 µM,> 10000 nM
same,IC50,second compound 1 µM,> 10000 nM
same,IC50,second compound 3.16 µM,> 10000 nM
same,IC50,second compound 10 µM,> 10000 nM
same,"viability, T/C",[1],110%
same,"viability, T/C",[2],99.5%
same,"viability, T/C",[3],101%
same,"viability, T/C",[4],93.3%
same,"viability, T/C",[5],82.5%
same,"viability, T/C",[6],61%
same,"viability, T/C",[7],106%
same,"viability, T/C",[8],101%
same,"viability, T/C",[9],103%
same,"viability, T/C",[10],94.2%
same,"viability, T/C",[11],80.9%
same,"viability, T/C",[12],60.1%
same,"viability, T/C",[13],102%
same,"viability, T/C",[14],101%
same,"viability, T/C",[15],99.1%
same,"viability, T/C",[16],85.8%
same,"viability, T/C",[17],83.6%
same,"viability, T/C",[18],58.2%
same,"viability, T/C",[19],98.8%
same,"viability, T/C",[20],91.2%
same,"viability, T/C",[21],99.3%
same,"viability, T/C",[22],85.4%
same,"viability, T/C",[23],79%
same,"viability, T/C",[24],62.4%
same,"viability, T/C",[25],85.2%
same,"viability, T/C",[26],85.9%
same,"viability, T/C",[27],91.5%
same,"viability, T/C",[28],77.8%
same,"viability, T/C",[29],69.5%
same,"viability, T/C",[30],57.1%
same,"viability, T/C",[31],73.5%
same,"viability, T/C",[32],77.9%
same,"viability, T/C",[33],70.4%
same,"viability, T/C",[34],72.5%
same,"viability, T/C",[35],63.4%
same,"viability, T/C",[36],54.8%
CC(=O)O[C@H]1C(=O)[C@@]2(C)[C@H]([C@H](OC(=O)c3ccccc3)[C@]3(O)C[C@H](OC(=O)[C@H](O)[C@@H](NC(=O)c4ccccc4)c4ccccc4)C(C)=C1C3(C)C)[C@]1(OC(C)=O)CO[C@@H]1C[C@@H]2O + Cc1cnc(CNC(=O)c2c(=O)c3ccc(N4CCCN(C)CC4)nc3n3c2sc2ccccc23)cn1,IC50,second compound 0.0316 µM,< 31.6 nM
same,IC50,second compound 0.1 µM,< 31.6 nM
same,IC50,second compound 0.316 µM,< 31.6 nM
same,IC50,second compound 1 µM,< 31.6 nM
same,IC50,second compound 3.16 µM,< 31.6 nM
same,IC50,second compound 10 µM,< 31.6 nM
same,"viability, T/C",[1],40.6%
same,"viability, T/C",[2],13.7%
same,"viability, T/C",[3],8.87%
same,"viability, T/C",[4],6.32%
same,"viability, T/C",[5],6.9%
same,"viability, T/C",[6],11.3%
same,"viability, T/C",[7],31.5%
same,"viability, T/C",[8],14%
same,"viability, T/C",[9],6.78%
same,"viability, T/C",[10],6.48%
same,"viability, T/C",[11],6.61%
same,"viability, T/C",[12],7.71%
same,"viability, T/C",[13],14.6%
same,"viability, T/C",[14],9.67%
same,"viability, T/C",[15],5.73%
same,"viability, T/C",[16],5.21%
same,"viability, T/C",[17],4.57%
same,"viability, T/C",[18],6.73%
same,"viability, T/C",[19],3.73%
same,"viability, T/C",[20],3.78%
same,"viability, T/C",[21],3.68%
same,"viability, T/C",[22],2.27%
same,"viability, T/C",[23],2.21%
same,"viability, T/C",[24],3.57%
same,"viability, T/C",[25],2.95%
same,"viability, T/C",[26],2.49%
same,"viability, T/C",[27],1.98%
same,"viability, T/C",[28],1.77%
same,"viability, T/C",[29],1.78%
same,"viability, T/C",[30],2.45%
same,"viability, T/C",[31],0.16%
same,"viability, T/C",[32],0.18%
same,"viability, T/C",[33],0.19%
same,"viability, T/C",[34],0.14%
same,"viability, T/C",[35],0.17%
same,"viability, T/C",[36],0.19%
C=CCn1c(=O)c2cnc(Nc3ccc(N4CCN(C)CC4)cc3)nc2n1-c1cccc(C(C)(C)O)n1 + Cc1[nH]c2ccc(F)cc2c1-c1nc2c3cccnc3c3ncccc3c2[nH]1,IC50,second compound 0.0316 µM,1930 nM
same,IC50,second compound 0.1 µM,1920 nM
same,IC50,second compound 0.316 µM,1470 nM
same,IC50,second compound 1 µM,1570 nM
same,IC50,second compound 3.16 µM,960 nM
same,IC50,second compound 10 µM,1390 nM
same,"viability, T/C",[1],107%
same,"viability, T/C",[2],99.1%
same,"viability, T/C",[3],94.5%
same,"viability, T/C",[4],77%
same,"viability, T/C",[5],28.8%
same,"viability, T/C",[6],27.8%
same,"viability, T/C",[7],105%
same,"viability, T/C",[8],104%
same,"viability, T/C",[9],97.2%
same,"viability, T/C",[10],81.5%
same,"viability, T/C",[11],25.4%
same,"viability, T/C",[12],24%
same,"viability, T/C",[13],107%
same,"viability, T/C",[14],98.1%
same,"viability, T/C",[15],94%
same,"viability, T/C",[16],62.7%
same,"viability, T/C",[17],24.2%
same,"viability, T/C",[18],26%
same,"viability, T/C",[19],98.5%
same,"viability, T/C",[20],86.1%
same,"viability, T/C",[21],86%
same,"viability, T/C",[22],63.4%
same,"viability, T/C",[23],29.6%
same,"viability, T/C",[24],23.9%
same,"viability, T/C",[25],94.8%
same,"viability, T/C",[26],76%
same,"viability, T/C",[27],78.1%
same,"viability, T/C",[28],48.7%
same,"viability, T/C",[29],27.8%
same,"viability, T/C",[30],24.5%
same,"viability, T/C",[31],86.1%
same,"viability, T/C",[32],77.8%
same,"viability, T/C",[33],75.3%
same,"viability, T/C",[34],58.7%
same,"viability, T/C",[35],30%
same,"viability, T/C",[36],24.9%
Cc1cccc(N(C)C(=O)C2C(O)CCN2c2nc(C)cc(C(F)(F)F)c2C#N)c1 (stereo not drawn) + Cc1[nH]c2ccc(F)cc2c1-c1nc2c3cccnc3c3ncccc3c2[nH]1,IC50,second compound 0.0316 µM,> 10000 nM
same,IC50,second compound 0.1 µM,> 10000 nM
same,IC50,second compound 0.316 µM,> 10000 nM
same,IC50,second compound 1 µM,> 10000 nM
same,IC50,second compound 3.16 µM,> 10000 nM
same,IC50,second compound 10 µM,> 10000 nM
same,"viability, T/C",[1],101%
same,"viability, T/C",[2],99.1%
same,"viability, T/C",[3],91.6%
same,"viability, T/C",[4],88.2%
same,"viability, T/C",[5],98.3%
same,"viability, T/C",[6],92%
same,"viability, T/C",[7],95.2%
same,"viability, T/C",[8],98.4%
same,"viability, T/C",[9],98.8%
same,"viability, T/C",[10],97.9%
same,"viability, T/C",[11],102%
same,"viability, T/C",[12],96.7%
same,"viability, T/C",[13],101%
same,"viability, T/C",[14],104%
same,"viability, T/C",[15],106%
same,"viability, T/C",[16],102%
same,"viability, T/C",[17],101%
same,"viability, T/C",[18],110%
same,"viability, T/C",[19],94.9%
same,"viability, T/C",[20],101%
same,"viability, T/C",[21],102%
same,"viability, T/C",[22],103%
same,"viability, T/C",[23],110%
same,"viability, T/C",[24],94.7%
same,"viability, T/C",[25],94.6%
same,"viability, T/C",[26],97.4%
same,"viability, T/C",[27],111%
same,"viability, T/C",[28],100%
same,"viability, T/C",[29],98.5%
same,"viability, T/C",[30],99.7%
same,"viability, T/C",[31],96.1%
same,"viability, T/C",[32],101%
same,"viability, T/C",[33],93%
same,"viability, T/C",[34],95%
same,"viability, T/C",[35],97.5%
same,"viability, T/C",[36],88.3%
